In US20030220396A1, “Method for treating ocular hypertension and glaucoma” (SUCAMPO AG, priority 2002, published 2003):

What was measured:
Assay type in all cases: in vivo
[1] = system: intraocular pressure (IOP); experiment: IOP lowering after instillation of ophthalmic solution in white rabbit (Comparative Example); conditions: for ΔIOP · AUC0-6 h Mean ± S.E.: 0.05 w/v% solution, 35 μL/eye, in mmHg·h (unit assumed)
Protocol: (§1) In the following examples, the osmolarity was measured by means of OSMOMETER (Model OM-801, VOGEL) at room temperature.
Three kinds of ophthalmic solutions each containing 0.05 w/v% of test substance 2 (13,14-dihydro-15-keto-20-ethyl-PGF2αisopropyl ester), which is a 15-keto-prostaglandin compound having a linear structure at the end of the ω chain, were prepared and used. The osmolarity ratio of the solutions were adjusted to 0.3 (osmolarity: 86 mOsm), 0.7 (osmolarity: 200 mOsm) and 1.0 (osmolarity: 286 mOsm), respectively. Each of the test solutions (35 μL/eye) was instilled serially into one eye of a white rabbit with one-week intervals between the installations.

[2] = system: intraocular pressure (IOP); experiment: IOP lowering after instillation of ophthalmic solution in cynomolgus monkeys (Example 1); conditions: for ΔIOP · AUC0-24 h Mean ± S.E.: 0.001 w/v% solution, 30 μL/eye
Protocol: as §1
Two kinds of test ophthalmic solutions each containing 0.001 w/v% of test substance 1 (13,14-dihydro-15-keto-17-phenyl-18,19,20-trinor-PGF2αisopropyl ester), which is 15-keto-prostaglandin compound having a ring structure at the end of the ω chain were prepared. The osmolarity ratio of one solution was adjusted to 0.7 (osmolarity: 200 mOsm) and the other was adjusted to 1.0 (osmolarity: 286 mOsm). Nine cynomolgus monkeys were used for the example. One of the test solutions was instilled (30 μL/eye) into one eye of the monkey, and one week after, the other test solution was instilled (30 μL/eye) into the same eye.

[3] = system: intraocular pressure (IOP); experiment: IOP lowering after instillation of ophthalmic solution in cynomolgus monkeys (Example 2); conditions: for ΔIOP · AUC0-24 h Mean ± S.E.: 0.001 w/v% solution, 30 μL/eye, in mmHg·h (unit assumed)
Protocol: as §1
Three kinds of ophthalmic solutions each containing 0.001 w/v% of test substance 1 were prepared and used. The osmolarity ratio of the solutions were adjusted to 0.8 (osmolarity: 229 mOsm), 1.0 (osmolarity: 286 mOsm) and 1.3 (osmolarity: 372 mOsm) respectively. Eight cynomolgus monkeys were used for this example. Test solutions were instilled to the monkey in the same manner as Example 1, i.e. 30 μL/eye of each solution was serially instilled to same eye with one-week intervals between the instillations.

[4] = osmolarity ratio 1.0 (286 mOsm)

Compound | ΔIOP · AUC0-6 h Mean ± S.E. ([1]; osmolarity ratio 0.3 (86 mOsm)) | ΔIOP · AUC0-6 h Mean ± S.E. ([1]; osmolarity ratio 0.7 (200 mOsm)) | ΔIOP · AUC0-6 h Mean ± S.E. [1, 4] | IOP lowering effect, comparison in words ([1]; osmolarity ratio 0.3, 0.7 and 1.0 compared, 0.05 w/v%) | ΔIOP · AUC0-24 h Mean ± S.E. ([2]; osmolarity ratio 0.7 (200 mOsm), in mmHg·h (unit assumed)) | ΔIOP · AUC0-24 h Mean ± S.E. ([2]; osmolarity ratio 1.0 (286 mOsm), p < 0.05 vs ratio 0.7, in mmHg·h (unit assumed)) | IOP lowering effect, comparison in words ([2]; osmolarity ratio 1.0 compared with osmolarity ratio 0.7, 0.001 w/v%) | ΔIOP · AUC0-24 h Mean ± S.E. ([3]; osmolarity ratio 0.8 (229 mOsm)) | ΔIOP · AUC0-24 h Mean ± S.E. [3, 4] | ΔIOP · AUC0-24 h Mean ± S.E. ([3]; osmolarity ratio 1.3 (372 mOsm)) | IOP lowering effect, comparison in words ([3]; osmolarity ratio 1.0 compared with osmolarity ratio 0.8 and 1.3, 0.001 w/v%)
CCCCCCCC(=O)CC[C@@H]1[C@@H](C/C=C\CCCC(=O)OC(C)C)[C@@H](O)C[C@H]1O [Test Substance 2, 13,14-dihydro-15-keto-20-ethyl-PGF2αisopropyl ester] | 18.9 ± 4.4 | 22.5 ± 5.1 | 20.3 ± 4.6 | substantially the same IOP lowering effect |  |  |  |  |  |  | 
CC(C)OC(=O)CCC/C=C\C[C@@H]1[C@@H](CCC(=O)CCc2ccccc2)[C@H](O)C[C@@H]1O [Test Substance 1, 13,14-dihydro-15-keto-17-phenyl-18,19,20-trinor-PGF2αisopropyl ester] |  |  |  |  | 22.8 ± 11.8 | 55.1 ± 10.7 | significantly greater IOP lowering effect | 41.1 ± 18.7 | 62.3 ± 19.3 | 37.9 ± 14.8 | greater IOP lowering effect
